Laboratory results as given in US9770026B2, “Substituted pyrimidine compound and uses thereof” (Shenyang Sinochem Agrochemicals R&D Co., Ltd., priority 2012, dated 2017).

Columns and labels:
wheat powdery mildew = assay: protectant activity in vivo against wheat powdery mildew
corn rust = assay: protectant activity in vivo against corn rust
cucumber downy mildew = assay: protectant activity in vivo against cucumber downy mildew; conditions: for control effect against cucumber downy mildew (%): protectant activity
[1] = test system: Green peach aphids (Myzus Persicae Sulzer); assay: bioactivity test against green peach aphid, airbrush foliar spray; assay type: in vivo; conditions: for Insecticidal activity against peach aphid (%): contrastive test
Protocol: (§1) Compounds were dissolved in mixed solvent (acetone:methanol=1:1), and diluted to required concentration with water containing 0.1% of tween 80.
(§2) Diamond back moth, armyworm, peach aphid and carmine spider mite were used as targets and the method of spraying by airbrush was used for determination of insecticidal biassays.
Method: Filter papers were put in culture dishes (Diameter=6 cm), and water was dripped on filter papers for preserving moisture. Green peach aphids (Myzus Persicae Sulzer) were maintained on cabbage. Leaves (Diameter=3 cm) of approximately 15-30 aphids were put in the culture dishes. Bioactivity tests were used the method of Airbrush Foliar Spray, pressure=10 psi (0.7 kg/cm2), spray volume=0.5 mL. The studies were conducted at […] 25±1 C in incubator cabinets with 60±5% RH. Survey the survival aphids after 48 hrs and calculate the death rates.

carmine spider mite = assay: bioactivity test against carmine spider mite, airbrush spray; assay type: in vivo; conditions: 600 ppm, mortality after 72 hrs
Protocol: as §1, §2
The method: Broadbean shoots with two true leaves in pot were taken, the healthy adults of carmine spider mite were inoculated to the leaves. The adults were counted and then sprayed with airbrush at the pressure of 0.7 kg/cm^2 and at dose of 0.5 ml. 3 replicates were set for each treatment. And then they were maintained in standard observation room. Scores were conducted and mortalities were calculated after 72 hrs.

[2] = 10 ppm, death rate after 48 hrs
[3] = 100 ppm, death rate after 48 hrs
[4] = 600 ppm, death rate after 48 hrs

Row | SMILES | protectant activity against wheat powdery mildew in vivo (wheat powdery mildew; 400 ppm) | protectant activity against cucumber downy mildew in vivo (cucumber downy mildew; 400 ppm) | control (test results against green peach aphid) [1, 3] | control (test results against green peach aphid) [1, 4] | protectant activity against corn rust in vivo (corn rust; 400 ppm) | protectant activity against cucumber downy mildew in vivo (cucumber downy mildew; 100 ppm) | control effect against cucumber downy mildew (%) (cucumber downy mildew; 25 mg/L) | control effect against cucumber downy mildew (%) (cucumber downy mildew; 50 mg/L) | control effect against cucumber downy mildew (%) (cucumber downy mildew; 100 mg/L) | control effect against cucumber downy mildew (%) (cucumber downy mildew; 400 mg/L) | protectant activity against cucumber downy mildew in vivo (cucumber downy mildew; 25 ppm) | protectant activity against cucumber downy mildew in vivo (cucumber downy mildew; 50 ppm) | control effect against cucumber downy mildew (%) (cucumber downy mildew; 12.5 mg/L) | other results
1 | FC(F)(F)c1ccc(Oc2ccc(CNc3ncnc4ccccc34)cc2)nc1 [CK31, reference compound] |  |  |  |  |  |  |  |  |  |  |  |  |  | pest or weed control at 6.25 µg/mL (wheat powdery mildew; Triticum aestivum, 168 h, read-out: control effect against wheat powdery mildew (%), 6.25 mg/L, protectant activity): 0%; pest or weed control at 25 µg/mL (wheat powdery mildew; Triticum aestivum, 168 h, read-out: control effect against wheat powdery mildew (%), 25 mg/L, protectant activity): 0%; pest or weed control at 100 µg/mL (wheat powdery mildew; Triticum aestivum, 168 h, read-out: control effect against wheat powdery mildew (%), 100 mg/L, protectant activity): 0%; pest or weed control at 400 µg/mL (wheat powdery mildew; Triticum aestivum, 168 h, read-out: control effect against wheat powdery mildew (%), 400 mg/L, protectant activity): 0%; pest or weed control at 6.25 µg/mL (corn rust; Zea mays, 168 h, read-out: control effect against corn rust (%), 6.25 mg/L, protectant activity): 0%; pest or weed control at 25 µg/mL (corn rust; Zea mays, 168 h, read-out: control effect against corn rust (%), 25 mg/L, protectant activity): 0%; pest or weed control at 100 µg/mL (corn rust; Zea mays, 168 h, read-out: control effect against corn rust (%), 100 mg/L, protectant activity): 0%; pest or weed control at 400 µg/mL (corn rust; Zea mays, 168 h, read-out: control effect against corn rust (%), 400 mg/L, protectant activity): 0%
2 | CCOC(=O)c1ccc(Oc2ccc(CCNc3ncnc(C)c3Cl)cc2)nc1 [Compound I-35] | 100% | 100% | 100% | 100% | 100% |  |  |  |  |  |  |  |  | control (test results against green peach aphid) [1, 2]: 100%; protectant activity against corn rust in vivo (corn rust; 100 ppm): 100%
3 | CCc1ncnc(NCCc2ccc(Oc3ncc(C(F)(F)F)cc3Cl)cc2)c1Cl [Compound I-602] | 100% | 100% | 100% | 100% |  | 100% |  |  |  |  |  |  |  | protectant activity against wheat powdery mildew in vivo (wheat powdery mildew; 100 ppm): 100%; control against carmine spider mite (carmine spider mite): 100%
4 | FC(F)c1ncnc(NCCc2ccc(Oc3ncc(Cl)cc3Cl)cc2)c1Cl [Compound I-2555] | 100% | 100% | 100% | 100% | 100% |  |  |  |  |  |  |  |  | protectant activity against wheat powdery mildew in vivo (wheat powdery mildew; 25 ppm): 100%; protectant activity against wheat powdery mildew in vivo (wheat powdery mildew; 100 ppm): 100%
5 | CCc1nc(C)nc(NCCc2ccc(Oc3nc(Cl)c(Cl)cc3Cl)cc2)c1Cl [Compound I-6790] |  |  |  |  |  |  |  |  |  |  |  |  |  | pest or weed control at 400 ppm (wheat powdery mildew; Triticum aestivum, 168 h, read-out: protectant activity against wheat powdery mildew in vivo, 400 ppm): 100%; pest or weed control at 25 ppm (cucumber downy mildew; Cucumis sativus, 168 h, read-out: protectant activity against cucumber downy mildew in vivo, 25 ppm): 80 to 99%; pest or weed control at 50 ppm (cucumber downy mildew; Cucumis sativus, 168 h, read-out: protectant activity against cucumber downy mildew in vivo, 50 ppm): 80 to 99%; pest or weed control at 100 ppm (cucumber downy mildew; Cucumis sativus, 168 h, read-out: protectant activity against cucumber downy mildew in vivo, 100 ppm): 80 to 99%; pest or weed control at 400 ppm (cucumber downy mildew; Cucumis sativus, 168 h, read-out: protectant activity against cucumber downy mildew in vivo, 400 ppm): 100%; pest or weed control at 600 ppm ([1]; Myzus persicae, foliar, 48 h, 600 ppm, death rate after 48 hrs): 100%; pest or weed control at 400 ppm (corn rust; Zea mays, 168 h, read-out: protectant activity against corn rust in vivo, 400 ppm): 100%
6 | Cc1ncnc(NCCc2ccc(Oc3ccccc3Cl)nc2)c1Cl [III-5] | 100% | 100% |  | 100% |  | 100% | 100% | 100% | 100% | 100% | 100% | 100% |  | control against carmine spider mite (carmine spider mite): 100%
7 | Cc1ncnc(NCCc2ccc(Oc3ccc(Cl)cc3Cl)nc2)c1Cl [III-82] | 100% | 100% |  | 100% | 100% | 100% | 100% | 100% | 100% | 100% | 100% | 100% | 98% | 
8 | Cc1ncnc(NCCc2ccc(Oc3cc(Cl)ccc3Cl)nc2)c1Cl [III-83] | 100% |  |  | 100% | 100% |  |  |  |  |  |  |  |  | 
9 | CCc1ncnc(NCCc2ccc(Oc3cccc(Cl)c3)nc2)c1Cl [III-186] | 100% |  | 100% | 100% | 100% |  |  |  |  |  |  |  |  | 
10 | CCc1ncnc(NCCc2ccc(Oc3ccc(Cl)cc3Cl)nc2)c1Cl [III-262] | 100% | 100% | 100% | 100% | 100% | 100% | 100% | 100% | 100% | 100% | 100% | 100% |  | control effect against corn rust (%) (corn rust; 0.4 mg/L, protectant activity): 60%; control effect against corn rust (%) (corn rust; 1.6 mg/L, protectant activity): 90%; control effect against corn rust (%) (corn rust; 6.25 mg/L, protectant activity): 90%; control effect against corn rust (%) (corn rust; 25 mg/L, protectant activity): 100%; control effect against corn rust (%) (corn rust; 100 mg/L, protectant activity): 100%; control effect against corn rust (%) (corn rust; 400 mg/L, protectant activity): 100%; protectant activity against corn rust in vivo (corn rust; 25 ppm): 100%; protectant activity against corn rust in vivo (corn rust; 100 ppm): 100%
11 | CCc1ncnc(NCCc2ccc(Oc3cc(Cl)ccc3Cl)nc2)c1Cl [III-263] | 100% | 100% |  | 100% |  | 100% | 100% | 100% | 100% | 100% | 100% | 100% | 98% | control effect against cucumber downy mildew (%) (cucumber downy mildew; 6.25 mg/L): 70%
12 | CCc1ncnc(NCCc2ccc(Oc3ccc(C(F)(F)F)cc3Cl)nc2)c1Cl [III-301] | 100% | 100% | 100% | 100% | 100% | 100% | 100% | 100% | 100% | 100% | 100% | 100% | 100% | protectant activity against wheat powdery mildew in vivo (wheat powdery mildew; 100 ppm): 100%; control effect against cucumber downy mildew (%) (cucumber downy mildew; 6.25 mg/L): 100%; protectant activity against cucumber downy mildew in vivo (cucumber downy mildew; 6.25 ppm): 100%; protectant activity against cucumber downy mildew in vivo (cucumber downy mildew; 12.5 ppm): 100%; Insecticidal activity against peach aphid (%) ([1]; 10 mg/L): 100%; Insecticidal activity against peach aphid (%) ([1]; 100 mg/L): 100%; Insecticidal activity against peach aphid (%) ([1]; 600 mg/L): 100%; control (test results against green peach aphid) [1, 2]: 100%; protectant activity against corn rust in vivo (corn rust; 100 ppm): 100%
13 | COc1ccc(Oc2ccc(CCNc3nc(C)nc(Cl)c3Cl)cn2)cc1 [III-2539] |  | 100% |  | 100% | 100% | 100% | 100% | 100% | 100% | 100% | 100% | 100% | 85% | control against carmine spider mite (carmine spider mite): 100%
